# Measured values from the supplement of paper PMC10307832.
# Columns and labels:
# Assay in all cases: relative viability (nuclei count vs DMSO), 5 days (fraction); higher = more cells survive
# [1] = compound: CCN1C(=O)C2=CC(=C(N=C2N(C1=O)C3CC3)N)C(=O)N + CC(=O)c1c(C)c2cnc(Nc3ccc(N4CCNCC4)cn3)nc2n(C2CCCC2)c1=O [Palbociclib] (partner 0.5 µM)
# Procedure, shortened: (§1)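 Each reported value is a median over duplicate plates. It expresses relative viability: treated-well nuclei count divided by vehicle-well nuclei count. Lung cancer cell lines in 1536-well plates were dosed by pin tool a day after seeding, alone with one drug or with a fixed anchor-drug dose plus five library-drug doses (not always all listed) in √10 steps, and nuclei were counted after 5 days.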
# [2] = compound: CCN1C(=O)C2=CC(=C(N=C2N(C1=O)C3CC3)N)C(=O)N + CCNC(=O)c1noc(-c2cc(C(C)C)c(O)cc2O)c1-c1ccc(CN2CCOCC2)cc1 [Luminespib] (partner 0.01 µM)
# Procedure, shortened: as §1
# [3] = compound: CCN1C(=O)C2=CC(=C(N=C2N(C1=O)C3CC3)N)C(=O)N + C[C@]1(O)C[C@@H](c2nc(-c3ccc4ccc(-c5ccccc5)nc4c3)c3c(N)nccn32)C1 [Linsitinib] (partner 1 µM)
# Procedure, shortened: as §1
# [4] = compound: CCN1C(=O)C2=CC(=C(N=C2N(C1=O)C3CC3)N)C(=O)N + NC(=O)Nc1cc(-c2cccc(F)c2)sc1C(=O)N[C@H]1CCCNC1 [AZD7762] (partner 0.2 µM)
# Procedure, shortened: as §1
# [5] = compound: CCN1C(=O)C2=CC(=C(N=C2N(C1=O)C3CC3)N)C(=O)N + O=C(c1cc(Cc2n[nH]c(=O)c3ccccc23)ccc1F)N1CCN(C(=O)C2CC2)CC1 [Olaparib] (partner 8 µM)
# Procedure, shortened: as §1
Cell Line,relative viability ([1]; first compound 0.253 µM),relative viability ([1]; first compound 0.8 µM),relative viability ([1]; first compound 2.53 µM),relative viability ([1]; first compound 8 µM),relative viability ([2]; first compound 0.253 µM),relative viability ([2]; first compound 0.8 µM),relative viability ([2]; first compound 2.53 µM),relative viability ([2]; first compound 8 µM),relative viability ([3]; first compound 0.253 µM),relative viability ([3]; first compound 0.8 µM),relative viability ([3]; first compound 2.53 µM),relative viability ([3]; first compound 8 µM),relative viability ([4]; first compound 0.253 µM),relative viability ([4]; first compound 0.8 µM),relative viability ([4]; first compound 2.53 µM),relative viability ([4]; first compound 8 µM),relative viability ([5]; first compound 0.253 µM),relative viability ([5]; first compound 0.8 µM),relative viability ([5]; first compound 2.53 µM),relative viability ([5]; first compound 8 µM)
NCI-H1993,0.414,0.561,0.651,0.676,1.78,0.877,0.612,0.832,0.732,0.784,0.7,0.777,0.74,0.805,0.847,0.771,1.57,0.75,1.05,1.08
NCI-H2085,0.479,0.446,0.441,0.445,0.378,0.408,0.355,0.493,0.969,0.754,0.799,0.863,0.989,0.915,0.921,1.04,0.835,0.815,0.72,0.814
NCI-H2087,0.216,0.238,0.275,0.236,0.229,0.193,0.132,0.189,1.02,0.963,0.971,1.04,1.35,1.32,1.36,1.28,0.638,0.82,0.643,0.585
NCI-H2126,0.332,0.345,0.349,0.364,0.877,0.911,0.993,0.779,0.741,0.745,0.656,0.718,1.02,0.967,0.941,0.958,0.876,0.932,0.887,0.939
NCI-H2347,0.458,0.489,0.445,0.492,1.03,0.469,0.774,0.341,1.04,1.03,0.925,0.845,0.769,0.785,0.695,0.817,0.576,0.612,0.55,0.518
NCI-H2405,0.523,,0.554,0.527,0.668,0.844,0.755,0.652,1.05,0.954,1.04,0.988,0.868,,0.928,0.725,0.9,,0.904,0.91
NCI-H3122,0.183,0.182,0.152,0.209,0.0925,0.0714,0.0957,0.0756,1.04,0.96,0.982,1.06,0.922,0.967,1.02,0.983,0.636,0.659,0.624,0.581
PC-3 [JPC-3],0.545,,0.559,0.52,0.661,0.709,0.663,0.823,0.982,0.933,0.92,0.919,0.813,,0.966,0.748,1.13,,1.18,1.21
PC-14,0.555,0.525,0.526,0.514,0.144,0.159,0.158,0.119,0.96,0.973,0.948,0.929,0.397,0.288,0.513,0.294,0.196,0.26,0.306,0.308
RERF-LC-KJ,1.09,1.1,1.09,1.13,1.27,1.17,1.22,1.14,0.846,0.864,0.843,0.817,1.02,0.826,1.6,1,0.887,0.89,0.883,0.897
